Test results reported in ChEMBL document CHEMBL4219209, “Design, synthesis and biological evaluation of novel tetrahydroisoquinoline derivatives as P-glycoprotein-mediated multidrug resistance inhibitors” (Bioorg Med Chem, 2018).
Counter-ions that a name gives are not always drawn. Calls of active or inactive are those of the source. The calls are words filed in the database; no cut-off is given here.

How the values were obtained:
K562/A02 [1] = assay: Cytotoxicity against human K562/A02 cells overexpressing P-gp assessed as reduction in cell viability after 48 hrs by MTT assay; format: ADME, cell-based; conditions: K562/A02, 48 h
K562 [2] = assay: Cytotoxicity against human K562 cells assessed as reduction in cell viability after 48 hrs by MTT assay; format: cell-based; conditions: K562, 48 h
Homo sapiens [3] = species: Homo sapiens; assay: (§1) Inhibition of P-gp in human K562/A02 cells assessed as potentiation of adriamycin-induced cytotoxicity by measuring fold reduction in adriamycin IC50 at 5 uM after 48 hrs by MTT assay relative to adriamycin alone; format: cell-based
Homo sapiens [4] = species: Homo sapiens; assay: as §1, with “uM preincubated for 24 hrs followed by compound wash out and subsequent addition of adriamycin after 12 hrs measured” for “uM”; format: cell-based
Homo sapiens [5] = species: Homo sapiens; assay: Inhibition of P-gp in human K562/A02 cells assessed as potentiation of adriamycin-induced cytotoxicity by measuring fold reduction in adriamycin IC50 at 0.1 uM after 48 hrs by MTT assay relative to adriamycin alone; format: cell-based
K562 [6] = assay: Inhibition of P-gp in human K562 cells assessed as increase in Rh123 accumulation at 5 uM after 2.5 hrs by flow cytometry method; format: cell-based
Homo sapiens [7] = species: Homo sapiens; assay: Inhibition of P-gp in human K562/A02 cells assessed as potentiation of adriamycin-induced cytotoxicity by measuring fold reduction in adriamycin IC50 at 2.5 uM after 48 hrs by MTT assay relative to adriamycin alone; format: cell-based
Homo sapiens [8] = species: Homo sapiens; assay: as §1, with “uM preincubated for 24 hrs followed by compound wash out and subsequent addition of adriamycin after 24 hrs measured” for “uM”; format: cell-based
Homo sapiens [9] = species: Homo sapiens; assay: Inhibition of P-gp in human K562/A02 cells assessed as potentiation of adriamycin-induced cytotoxicity by measuring fold reduction in adriamycin IC50 at 0.25 uM after 48 hrs by MTT assay relative to adriamycin alone; format: cell-based
K562 [10] = assay: Inhibition of P-gp in human K562 cells assessed as Rh123 efflux at 5 uM after 90 mins by fluorospectro photometric analysis (reference value: >70%); format: cell-based; parameters: scale not given: the % may be the effect or the level left
Homo sapiens [11] = species: Homo sapiens; assay: (§2) Inhibition of P-gp in human K562/A02 cells assessed as potentiation of adriamycin-induced cytotoxicity after 48 hrs by MTT assay; format: cell-based
[12] = as §2; format: cell-based; conditions: K562/A02, 48 h
Homo sapiens [13] = species: Homo sapiens; assay: Inhibition of P-gp in human K562/A02 cells assessed as potentiation of adriamycin-induced cytotoxicity by measuring fold reduction in adriamycin IC50 at 0.05 uM after 48 hrs by MTT assay relative to adriamycin alone; format: cell-based
Homo sapiens [14] = species: Homo sapiens; assay: as §1, with “uM preincubated for 24 hrs followed by compound wash out and subsequent addition of adriamycin after 6 hrs measured” for “uM”; format: cell-based
Homo sapiens [15] = species: Homo sapiens; assay: Inhibition of P-gp in human K562/A02 cells assessed as potentiation of adriamycin-induced cytotoxicity by measuring fold reduction in adriamycin IC50 at 1 uM after 48 hrs by MTT assay relative to adriamycin alone; format: cell-based
Homo sapiens [16] = species: Homo sapiens; assay: as §1, with “uM preincubated for 24 hrs followed by compound wash out and subsequent addition of adriamycin measured” for “uM”; format: cell-based
Homo sapiens [17] = species: Homo sapiens; assay: Inhibition of P-gp in human K562/A02 cells assessed as potentiation of adriamycin-induced cytotoxicity by measuring fold reduction in adriamycin IC50 at 0.5 uM after 48 hrs by MTT assay relative to adriamycin alone; format: cell-based
Homo sapiens [18] = species: Homo sapiens; assay: Inhibition of P-gp in human K562/A02 cells assessed as potentiation of adriamycin-induced cytotoxicity by measuring fold reduction in adriamycin IC50 at 5 uM preincubated for 24 hrs followed by adriamycin addition measured after 48 hrs by MTT assay relative to adriamycin alone; format: cell-based
Homo sapiens [19] = species: Homo sapiens; assay: Inhibition of P-gp in human K562/A02 cells assessed as potentiation of adriamycin-induced cytotoxicity by measuring fold reduction in adriamycin IC50 at 0.025 uM after 48 hrs by MTT assay relative to adriamycin alone; format: cell-based
K562/A02 [20] = assay: Inhibition of P-gp in human K562/A02 cells assessed as increase in adriamycin accumulation after 2.5 hrs by flow cytometry method; format: cell-based
K562/A02 [21] = conditions: Homo sapiens, 5 uM
Description: Inhibition of P-gp in human K562/A02 cells assessed as increase in adriamycin accumulation at 5 uM after 2.5 hrs by flow cytometry method

In the case of `CCCCc1ccc(NC(=O)c2ccccc2NCc2cn(CCN3CCc4cc(OC)c(OC)cc4C3)nn2)cc1`, the IC50 (K562/A02 [1]; read-out: IC50) is reported as > 100 µM, the IC50 (K562 [2]) is reported as 75.7 µM and the Ratio IC50 (Homo sapiens [3]) is reported as 15.5.
With `COc1cc2c(cc1OC)CN(CCn1cc(CNc3ccccc3C(=O)Nc3ccc([N+](=O)[O-])cc3)nn1)CC2` the IC50 (K562/A02 [1]; read-out: IC50) was > 100 µM, the IC50 (K562 [2]) was 43.8 µM and the Ratio IC50 (Homo sapiens [3]) was 2.6.
For `COc1cc2c(cc1OC)CN(CCn1cc(CNc3ccccc3C(=O)Nc3cc(OC)c(OC)c(OC)c3)nn1)CC2`, the IC50 (K562/A02 [1]; read-out: IC50) was > 100 µM, the IC50 (K562 [2]) was 43.1 µM and the Ratio IC50 (Homo sapiens [3]) was 1.3.
For `COc1ccc(NC(=O)c2ccccc2NCc2cn(CCN3CCc4cc(OC)c(OC)cc4C3)nn2)cc1`, the IC50 (K562/A02 [1]; read-out: IC50) was > 100 µM and the IC50 (K562 [2]) was 58.4 µM.
For `COc1cc2c(cc1OC)CN(CCn1cc(CNc3ccccc3C(=O)Nc3ccc(C(C)(C)C)cc3)nn1)CC2`, the Ratio IC50 (Homo sapiens [4]) was 5, the Ratio IC50 (Homo sapiens [5]) was 1.3 and the inhibition (K562 [6]) was “Active”. The IC50 (K562/A02 [1]; read-out: IC50) was > 100 µM, the Ratio IC50 (Homo sapiens [7]) was 13.1 and the IC50 (K562 [2]) was 45.4 µM. The Ratio IC50 (Homo sapiens [8]) was 3, the Ratio IC50 (Homo sapiens [9]) was 2.3 and the Activity (K562 [10]) was < 40%. The inhibition (Homo sapiens [11]) was “Dose-dependent effect”, the EC50 [12] was 0.253 µM and the Ratio IC50 (Homo sapiens [13]) was 1.2. It also gave a Ratio IC50 (Homo sapiens [14]) of 8.1, a Ratio IC50 (Homo sapiens [15]) of 7.3 and a Ratio IC50 (Homo sapiens [16]) of 11.6. The Ratio IC50 (Homo sapiens [17]) was 3.8, the Ratio IC50 (Homo sapiens [3]) was 34.2 to 39 and the Ratio IC50 (Homo sapiens [18]) was 40.7. For the same compound, the Ratio IC50 (Homo sapiens [19]) was 1.2 and the inhibition (K562/A02 [20]) was “Dose-dependent effect”.
For `COc1cc2c(cc1OC)CN(CCn1cc(CNc3ccccc3C(=O)NC3CCOCC3)nn1)CC2`, the IC50 (K562/A02 [1]; read-out: IC50) was > 100 µM, the IC50 (K562 [2]) was 59.2 µM and the Ratio IC50 (Homo sapiens [3]) was 8.2.
With `COc1ccc(NC(=O)c2ccccc2NCc2cn(CCN3CCc4cc(OC)c(OC)cc4C3)nn2)cc1OC` the IC50 (K562/A02 [1]; read-out: IC50) was > 100 µM, the IC50 (K562 [2]) was 60.5 µM and the Ratio IC50 (Homo sapiens [3]) was 1.3.
In the case of `COc1ccc(CCNC(=O)c2ccccc2NCc2cn(CCN3CCc4cc(OC)c(OC)cc4C3)nn2)cc1OC`, the IC50 (K562/A02 [1]; read-out: IC50) is reported as > 100 µM, the IC50 (K562 [2]) is reported as 61.1 µM and the Ratio IC50 (Homo sapiens [3]) is reported as 1.2.
For `COc1cc2c(cc1OC)CN(CCn1cc(CNc3ccccc3C(=O)NCc3ccccc3)nn1)CC2`, the IC50 (K562/A02 [1]; read-out: IC50) was > 100 µM, the IC50 (K562 [2]) was 49.6 µM and the Ratio IC50 (Homo sapiens [3]) was 4.5.
With `COc1cc2c(cc1OC)CN(CCn1cc(CNc3ccccc3C(=O)Nc3ccccc3)nn1)CC2` the IC50 (K562/A02 [1]; read-out: IC50) was > 100 µM, the IC50 (K562 [2]) was 34.3 µM and the Ratio IC50 (Homo sapiens [3]) was 2.1.
Compound `COc1cccc2c1C(=O)c1c(O)c3c(c(O)c1C2=O)C[C@@](O)(C(=O)CO)C[C@@H]3O[C@H]1C[C@H](N)[C@H](O)[C@H](C)O1` [DOXORUBICIN HYDROCHLORIDE] has an IC50 (K562/A02 [1]; read-out: IC50) of 65.6 µM and an IC50 (K562 [2]) of 0.97 µM.
For `COc1cc2c(cc1OC)CN(CCc1ccc(NC(=O)c3cc(OC)c(OC)cc3NC(=O)c3cnc4ccccc4c3)cc1)CC2`, the Ratio IC50 (Homo sapiens [4]) was 6.2, the Ratio IC50 (Homo sapiens [8]) was 3.6 and the Ratio IC50 (Homo sapiens [14]) was 10.3. It also gave a Ratio IC50 (Homo sapiens [16]) of 17, a Ratio IC50 (Homo sapiens [3]) of 49.4 and a Ratio IC50 (Homo sapiens [18]) of 32.1.
With `COc1cc2c(cc1OC)CN(CCn1cc(CNc3ccccc3C(=O)Nc3ccc(F)c(F)c3)nn1)CC2` the IC50 (K562/A02 [1]; read-out: IC50) was > 100 µM, the IC50 (K562 [2]) was 87.9 µM and the Ratio IC50 (Homo sapiens [3]) was 3.7.
With `COc1cc2c(cc1OC)CN(CCn1cc(CNc3ccccc3C(=O)Nc3ccc(OC(F)(F)F)cc3)nn1)CC2` the IC50 (K562/A02 [1]; read-out: IC50) was > 100 µM, the IC50 (K562 [2]) was 90.2 µM and the Ratio IC50 (Homo sapiens [3]) was 21.4.
In the case of `COc1ccc(CCN(C)CCCC(C#N)(c2ccc(OC)c(OC)c2)C(C)C)cc1OC` (stereo unspecified) [VERAPAMIL], the inhibition (K562 [6]) is reported as “Active”, the IC50 (K562/A02 [1]) is reported as 67.2 µM and the IC50 (K562 [2]) is reported as 82.2 µM. The inhibition (K562/A02 [21]) was “Active”, the Ratio IC50 (Homo sapiens [3]) was 3.3 and the Ratio IC50 (Homo sapiens [18]) was 4.8.
In the case of `COc1cc2c(cc1OC)CN(CCn1cc(CNc3ccccc3C(=O)NCCc3ccccc3)nn1)CC2`, the IC50 (K562/A02 [1]; read-out: IC50) is reported as > 100 µM, the IC50 (K562 [2]) is reported as 42.2 µM and the Ratio IC50 (Homo sapiens [3]) is reported as 4.3.
With `COc1cc2c(cc1OC)CN(CCn1cc(CNc3ccccc3C(=O)NCC(C)C)nn1)CC2` the IC50 (K562/A02 [1]; read-out: IC50) was > 100 µM, the IC50 (K562 [2]) was 61.5 µM and the Ratio IC50 (Homo sapiens [3]) was 1.7.
For `COc1cc2c(cc1OC)CN(CCn1cc(CNc3ccccc3C(=O)Nc3ccc4c(c3)OCO4)nn1)CC2`, the IC50 (K562/A02 [1]; read-out: IC50) was > 100 µM, the IC50 (K562 [2]) was 41.5 µM and the Ratio IC50 (Homo sapiens [3]) was 4.6.
For `COc1cc2c(cc1OC)CN(CCn1cc(CNc3ccccc3C(=O)Nc3ccc(F)cc3)nn1)CC2`, the IC50 (K562/A02 [1]; read-out: IC50) was > 100 µM, the IC50 (K562 [2]) was 61 µM and the Ratio IC50 (Homo sapiens [3]) was 3.7.
For `COc1cc2c(cc1OC)CN(CCn1cc(CNc3ccccc3C(=O)Nc3ccc(Cl)cc3)nn1)CC2`, the IC50 (K562/A02 [1]; read-out: IC50) was > 100 µM, the IC50 (K562 [2]) was 43.4 µM and the Ratio IC50 (Homo sapiens [3]) was 2.6.
